Data published in the supplement of paper PMC10331698.
± gives the standard deviation of the averaged measurements.

Legend:
Test in all cases: level (log10 ratio to DMSO vehicle control); higher = higher biomarker level / cell amount than vehicle control
Conditions in all cases: in DMSO
[1] = compound: OCC(F)(F)OC(F)(F)C(F)(F)OC(F)(F)CO [1H,1H,8H,8H-Perfluoro-3,6-dioxaoctane-1,8-diol]
Description: (§1)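 BioMAP Diversity Plus panel of 12 human primary cell co-culture systems (3C, 4H, LPS, SAg, BT, BF4T, BE3C, CASM3C, HDF3CGF, KF3CT, MyoF, Mphg). Compounds were added 1 h before stimulation and left for 24 h (MyoF 48 h; BT 72 h for soluble read-outs or 6 d for IgG). Biomarkers were read by ELISA, cytotoxicity by SRB, PBMC viability and proliferation by Alamar Blue. Each well value was divided by the mean of 8 DMSO control wells on the same plate and log10 transformed; duplicate blinded samples were tested at 4 concentrations.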

[2] = compound: O=C(O)C(F)(F)C(F)(F)C(F)(F)F [Perfluorobutanoic acid]
Description: as §1

[3] = compound: O=C(O)C(F)(F)C(F)(F)C(F)(F)C(F)(F)C(F)(F)C(F)(F)F [Perfluoroheptanoic acid]
Description: as §1

[4] = compound: C=CC(F)(F)C(F)(F)C(F)(F)C(F)(F)C(F)(F)C(F)(F)C(F)(F)C(F)(F)C=C [1,8-Divinylperfluorooctane]
Description: as §1

[5] = compound: CCN(CCO)S(=O)(=O)C(F)(F)C(F)(F)C(F)(F)C(F)(F)C(F)(F)C(F)(F)C(F)(F)C(F)(F)F [N-Ethyl-N-(2-hydroxyethyl)perfluorooctanesulfonamide]
Description: as §1

[6] = compound: O=C(O)C(F)(F)C(F)(F)C(F)F [4H-Perfluorobutanoic acid]
Description: as §1

[7] = compound: C=C(C)C(=O)OCCC(F)(F)C(F)(F)C(F)(F)C(F)(F)C(F)(C(F)(F)F)C(F)(F)F [(Perfluoro-5-methylhexyl)ethyl 2-methylprop-2-enoate]
Description: as §1

Test System | level (log10) ([1]; 6700 nM) | level (log10) ([1]; 20000 nM) | level (log10) ([1]; 60000 nM) | level (log10) ([2]; 6700 nM) | level (log10) ([2]; 20000 nM) | level (log10) ([2]; 60000 nM) | level (log10) ([3]; 6700 nM) | level (log10) ([3]; 20000 nM) | level (log10) ([3]; 60000 nM) | level (log10) ([4]; 6700 nM) | level (log10) ([4]; 20000 nM) | level (log10) ([5]; 6700 nM) | level (log10) ([5]; 20000 nM) | level (log10) ([6]; 6700 nM) | level (log10) ([6]; 20000 nM) | level (log10) ([6]; 60000 nM) | level (log10) ([7]; 6700 nM) | level (log10) ([7]; 20000 nM)
3C:CD87/uPAR | -0.0025 ± 0.015 | 0.019 ± 0.018 | 0.0015 ± 0.0078 | 0.0005 ± 0.005 | 0.0105 ± 0.015 | -0.0065 ± 0.011 | 0.0015 ± 0.0021 | -0.0115 ± 0.026 | 0.0045 ± 0.013 | -0.0065 ± 0.022 | 0.0105 ± 0.025 | -0.047 ± 0.027 | -0.124 ± 0.046 | -0.0265 ± 0.0092 | -0.0065 ± 0.0092 | 0.0095 ± 0.0064 | -0.007 ± 0.0028 | -0.019 ± 0.028
3C:CXCL8/IL-8 | 0.013 ± 0.014 | 0.014 ± 0.04 | 0.021 ± 0.081 | 0.001 ± 0.028 | -0.0035 ± 0.0064 | 0.0205 ± 0.03 | 0.0285 ± 0.04 | 0.0305 ± 0.056 | 0.0955 ± 0.088 | -0.023 ± 0.018 | 0.011 ± 0.034 | 0.02 ± 0.044 | -0.0985 ± 0.1 | -0.0015 ± 0.054 | 0.009 ± 0.0071 | 0.0395 ± 0.042 | 0.0105 ± 0.03 | 0.054 ± 0.086
3C:CXCL9/MIG | -0.0025 ± 0.005 | -0.004 ± 0.0071 | 0.0015 ± 0.011 | -0.003 ± 0.0042 | -0.0015 ± 0.011 | 0.0085 ± 0.0078 | 0.0115 ± 0.0035 | -0.01 ± 0.0071 | 0.0135 ± 0.0078 | -0.0085 ± 0.0064 | 0.0025 ± 0.0092 | -0.013 ± 0.0085 | -0.006 ± 0.0085 | 0.005 ± 0.0042 | 0.0035 ± 0.013 | 0.012 ± 0.0014 | -0.001 ± 0.011 | 0.0045 ± 0.0035
3C:HLA-DR | -0.0185 ± 0.012 | -0.0095 ± 0.016 | 0.0005 ± 0.036 | -0.0035 ± 0.028 | -0.0215 ± 0.00071 | -0.0115 ± 0.021 | 0.006 ± 0.017 | 0.004 ± 0.013 | 0.034 ± 0.047 | -0.0185 ± 0.028 | -0.007 ± 0.013 | 0.013 ± 0.025 | -0.0625 ± 0.016 | -0.003 ± 0.0057 | -0.013 ± 0.011 | 0.011 ± 0.014 | -0.004 ± 0.016 | -0.023 ± 0.02
3C:Proliferation | -0.066 ± 0.088 | 0.037 ± 0.035 | -0.0475 ± 0.064 | -0.0225 ± 0.084 | -0.02 ± 0.061 | 0.024 ± 0.042 | -0.0365 ± 0.028 | 0.0245 ± 0.057 | -0.109 ± 0.057 | 0 ± 0.016 | 0 ± 0.013 | -0.267 ± 0.087 | -0.947 ± 0.17 | -0.023 ± 0.02 | -0.03 ± 0.041 | 0.013 ± 0.065 | 0.004 ± 0.052 | -0.0305 ± 0.0021
3C:SRB | -0.01 ± 0.0085 | -0.0105 ± 0.0021 | -0.0255 ± 0.0021 | -0.021 ± 0.027 | -0.017 ± 0.013 | -0.0085 ± 0.0035 | -0.0065 ± 0.0078 | 0.005 ± 0.0085 | -0.0255 ± 0.0035 | 0.0135 ± 0.0021 | 0.027 ± 0.0042 | -0.0815 ± 0.021 | -0.217 ± 0.011 | 0.0015 ± 0.0064 | -0.007 ± 0.016 | -0.0075 ± 0.013 | -0.008 ± 0.0042 | -0.0175 ± 0.0078
4H:CCL2/MCP-1 | -0.037 ± 0.041 | -0.03 ± 0.013 | 0.008 ± 0.055 | -0.0185 ± 0.012 | -0.05 ± 0.028 | 0.0005 ± 0.079 | -0.0115 ± 0.0064 | -0.0165 ± 0.013 | 0.025 ± 0.024 | -0.0315 ± 0.005 | 0.013 ± 0.035 | -0.007 ± 0.0099 | -0.159 ± 0.044 | -0.066 ± 0.047 | -0.0555 ± 0.029 | -0.0005 ± 0.028 | -0.0135 ± 0.011 | 0.002 ± 0.0042
4H:CCL26/Eotaxin-3 | 0.0015 ± 0.0021 | 0.0015 ± 0.0092 | -0.0035 ± 0.00071 | -0.0135 ± 0.016 | -0.007 ± 0.024 | 0.015 ± 0.018 | 0.0055 ± 0.0064 | 0.0045 ± 0.0092 | -0.015 ± 0.0085 | 0.013 ± 0.0085 | 0.0345 ± 0.013 | 0.077 ± 0.031 | -0.143 ± 0.14 | -0.0165 ± 0.012 | -0.008 ± 0.011 | 0.008 ± 0.0085 | 0.042 ± 0.058 | 0.039 ± 0.02
4H:CD62P/P-selectin | 0.0225 ± 0.091 | 0.034 ± 0.055 | 0.0615 ± 0.046 | 0.086 ± 0.076 | 0.0575 ± 0.0035 | 0.09 ± 0.054 | 0.007 ± 0.018 | 0.0035 ± 0.016 | 0.0605 ± 0.05 | -0.009 ± 0.018 | -0.035 ± 0.064 | -0.079 ± 0.0014 | -0.142 ± 0.044 | -0.0185 ± 0.042 | 0.0005 ± 0.057 | -0.011 ± 0.04 | -0.017 ± 0.03 | -0.02 ± 0.028
4H:CD87/uPAR | 0.015 ± 0.044 | 0.0265 ± 0.0035 | 0.0065 ± 0.044 | -0.013 ± 0.0071 | -0.0125 ± 0.029 | -0.041 ± 0.0071 | 0.0355 ± 0.042 | -0.007 ± 0.054 | 0.061 ± 0.14 | -0.0125 ± 0.015 | 0.0215 ± 0.0064 | -0.037 ± 0.037 | -0.088 ± 0.024 | -0.0265 ± 0.025 | -0.0065 ± 0.0035 | -0.004 ± 0.044 | 0.0115 ± 0.037 | 0 ± 0.0071
4H:CD106/VCAM-1 | 0.0145 ± 0.012 | -0.0105 ± 0.0021 | -0.0025 ± 0.015 | -0.0165 ± 0.0092 | -0.021 ± 0.0042 | -0.001 ± 0.013 | 0.0215 ± 0.035 | 0.0045 ± 0.049 | 0.007 ± 0.017 | -0.012 ± 0.021 | 0.0035 ± 0.00071 | 0.116 ± 0.021 | 0.0765 ± 0.0021 | -0.003 ± 0.014 | -0.0165 ± 0.011 | 0.0065 ± 0.011 | -0.012 ± 0.016 | -0.0005 ± 0.005
4H:SRB | -0.014 ± 0.0099 | -0.0195 ± 0.015 | -0.047 ± 0.0071 | -0.02 ± 0.044 | -0.0115 ± 0.0035 | -0.007 ± 0.024 | -0.0035 ± 0.005 | 0.0135 ± 0.026 | -0.024 ± 0.021 | 0.002 ± 0.0057 | 0.0125 ± 0.00071 | -0.016 ± 0.0057 | -0.0605 ± 0.029 | -0.0085 ± 0.0092 | -0.003 ± 0.0071 | 0.0055 ± 0.0035 | 0.002 ± 0.013 | -0.0025 ± 0.019
4H:VEGFR2 | 0.011 ± 0.045 | 0.043 ± 0.044 | 0.0595 ± 0.049 | -0.025 ± 0.021 | -0.0105 ± 0.005 | 0.004 ± 0.013 | 0.016 ± 0.027 | 0.022 ± 0.013 | 0.012 ± 0.054 | -0.0065 ± 0.056 | 0.053 ± 0.0085 | 0.0365 ± 0.0092 | 0.002 ± 0.0042 | -0.0255 ± 0.015 | -0.005 ± 0.042 | 0.012 ± 0.05 | -0.0185 ± 0.037 | -0.0115 ± 0.033
BE3C:CD54/ICAM-1 | 0.0195 ± 0.013 | 0.0045 ± 0.015 | 0.0055 ± 0.022 | -0.0015 ± 0.023 | -0.0165 ± 0.0092 | 0.011 ± 0.025 | -0.007 ± 0.0071 | -0.023 ± 0.0028 | -0.0055 ± 0.022 | 0.0085 ± 0.015 | 0.0055 ± 0.013 | 0.0705 ± 0.033 | 0.0555 ± 0.013 | -0.0085 ± 0.0021 | -0.0245 ± 0.00071 | 0.0125 ± 0.033 | -0.0075 ± 0.0021 | 0.005 ± 0.0042
BE3C:CD87/uPAR | -0.001 ± 0.0099 | 0.0265 ± 0.016 | -0.0125 ± 0.005 | -0.012 ± 0.0099 | 0.0015 ± 0.013 | -0.015 ± 0.013 | -0.0275 ± 0.026 | -0.049 ± 0.033 | -0.05 ± 0.054 | 0.0045 ± 0.021 | -0.029 ± 0.025 | 0.012 ± 0.016 | -0.024 ± 0.028 | -0.003 ± 0.013 | -0.0175 ± 0.019 | 0.0015 ± 0.005 | 0.0035 ± 0.016 | 0.0165 ± 0.035
BE3C:CXCL8/IL-8 | 0.0075 ± 0.005 | 0.001 ± 0.041 | -0.012 ± 0.045 | 0.0155 ± 0.022 | 0.01 ± 0.014 | 0.0155 ± 0.005 | 0.033 ± 0.041 | 0.008 ± 0.042 | 0.0205 ± 0.1 | 0.0025 ± 0.021 | 0.01 ± 0.02 | -0.0825 ± 0.013 | -0.218 ± 0.056 | 0.015 ± 0.099 | 0.0165 ± 0.044 | 0.0695 ± 0.071 | -0.0065 ± 0.0092 | -0.008 ± 0.024
